We go through two compounds from paper PMC7796031, “Studies of Coumarin Derivatives for Constitutive Androstane Receptor (CAR) Activation” (Molecules, 2020).

For assay [1], the target named is T1, Constitutive androstane receptor (CAR) (Homo sapiens, UniProt Q14994).
T1 construct: The pGL4-gtPBREM plasmid was transfected into Hep3B cells; endogenous in cells
T1 sequence (Q14994 1-352): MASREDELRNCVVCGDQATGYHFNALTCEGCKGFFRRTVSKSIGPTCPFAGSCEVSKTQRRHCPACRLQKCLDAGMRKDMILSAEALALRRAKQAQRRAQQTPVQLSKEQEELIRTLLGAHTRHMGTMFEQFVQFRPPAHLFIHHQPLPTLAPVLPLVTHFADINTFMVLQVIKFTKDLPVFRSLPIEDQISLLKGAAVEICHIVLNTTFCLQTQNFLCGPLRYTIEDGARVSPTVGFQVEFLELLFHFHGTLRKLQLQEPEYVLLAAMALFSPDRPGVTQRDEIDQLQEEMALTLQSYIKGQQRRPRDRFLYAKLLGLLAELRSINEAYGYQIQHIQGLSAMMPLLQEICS
Description: In vitro CAR activation screening assay (UGT1A1 promoter gtPBREM-pGL4 luciferase reporter in Hep3B-gtPBREM cells). In kind it is cell-based. Summed up: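 Reporter: Hep3B cells stably carrying the UGT1A1 gtPBREM promoter in pGL4 luciferase (G418-selected), seeded at 1.5×10^5 cells/well overnight and then exposed to compounds at 10 μM for several hours (under 8 h). Luminescence of equal lysate amounts served as the CAR activation read-out. CITCO and scoparone served as reference agonists, and shCAR-transfected cells were used in follow-up.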

The next assay relates to db/db mice. Description: In vivo hypoglycemic effect in db/db mice (OGTT, fructosamine, insulin, HOMA-IR). On the set-up: species or system mouse. Here is the method: Six-week old male C57/BL6 mice (n = 6) were acquired from the Animal Center of the College of Medicine, National Taiwan University (Taipei, Taiwan) and 6-week-old male db/db mice (BKS.Cg-Dock7m +/+ Leprdb/JNarl) (n = 12) were acquired from the National Laboratory Animal Center (Tainan, Taiwan). Experimental animals were allowed to acclimate to the controlled photoperiod (a cycle of 12-h light/12-h dark), humidity (40–60% relative humidity) and temperature (22 ± 2 °C) with ad libitum supply of standard chow diets and drinking water for one week prior to the experimental treatment in accordance with the Guide for the Care and Use of Laboratory Animals (Institute of Laboratory Animal Resources Commission on Life Sciences, 2011). Acclimated animals were randomly separated into three cohorts: control group (C57/BL6 mice treated with vehicle for two weeks, n = 6), db/db group (db/db mice treated with vehicle for two weeks, n = 6), and db/db+SP group (db/db mice treated with 100 mg/kg scoparone for two weeks, n = 6). (IACUC Approval NO.: 20140532; Duration: 2015.01.01–2015.12.31; Ethical Committee: National Taiwan University College of Medicine and College of Public Health Institutional Animal Care and Use Committee (IACUC).)
The control mice or diabetic mice with or without drugs treatment for 2 weeks received an oral glucose challenge (2 g/kg). Mice were under slight anesthesia by an intraperitoneal injection of pentobarbital (50 mg/kg) and blood samples (20–50 μL via orbital sinus at each time point) were collected following: 0, 15, 30, 60, 90, and 120 min after delivery of the glucose load. Blood glucose levels were determined using SURESTEP blood glucose meter (Lifescan). Glucose tolerance was determined and performed as the curve (AUC) and delta AUC (ΔAUC) using Prism 5 software (GraphPad).
To determine the amount of insulin and fructosamine after fasting overnight, blood samples (0.5–0.8 mL) of euthanasia animals were collected. After centrifugation, the serum was analyzed by insulin and fructosamine immunoassay kits according to the respective instructions of the manufacturer (Mercodia AB Inc., Uppsala, Sweden; Hospitex Diagnostics Lp, League City, TX, USA). The homeostasis model assessment of insulin resistance (HOMA-IR) index is calculated with the formula of the values of fasting glucose and insulin divided by 22.5 as previously described.

Setting [2] is: db/db mice, 100 mg/kg P.O., two weeks.

Take `COc1cc2ccc(=O)oc2cc1OC` [Compound 39, scoparone]: in assay [1] (assay validation, positive control, indirect agonist), the “luciferase activity” value is on record as “enhance luciferase activity”. Moreover, in the assay with db/db mice (setting [2]), the HOMA-IR entry is “did not change”, the insulin level result is “did not change”, the level of fructosamine result is “decreased” and the “oral glucose tolerance test (OGTT)” value is recorded as “significant improvement”.

Turning to `CC(C)=CCOc1cc2ccc(=O)oc2cc1OCC=C(C)C` [Compound 50, 6,7-diprenoxycoumarin], in assay [1] (10 μM, compared to scoparone), the “increased CAR activation fold” value is on record as 50%. In addition, in assay [1] (Table 2, 10 μM, (luminescence of compound − luminescence of scoparone)/luminescence of scoparone × 100%, read-out: CAR Activation Fold), the activation at 10 µM came to 50%. In addition, the “in vivo efficacy (blood sugar lowering)” value in the assay on db/db mice (even by intraperitoneal injection) is recorded as “didn’t show any in vivo efficacy”.
